Test results: ChEMBL document CHEMBL1201862, “PubChem BioAssay data set” (2004)
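Method: 48-hour compound exposure of cells in 96-well plates, five concentrations, linear interpolation of endpoints. At the GI50, growth is halved.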 Active and inactive are the calls of the source. Rule as the data show it: active = GI50 up to about 1.1 µM and inactive = higher.

How the values were obtained:
Experiment in all cases: NCI tumour cell line growth inhibition, 48 h
IGROV-1 = tested on: IGROV-1
OVCAR-8 = tested on: OVCAR-8
CCRF-CEM = tested on: CCRF-CEM
786-0 = tested on: 786-0
MDA-MB-435 = tested on: MDA-MB-435
UO-31 = tested on: UO-31
HCC 2998 = tested on: HCC 2998
SF-539 = tested on: SF-539
SW-620 = tested on: SW-620
NCI-H460 = tested on: NCI-H460
LOX IMVI = tested on: LOX IMVI
HL-60 = tested on: HL-60
RPMI-8226 = tested on: RPMI-8226
Malme-3M = tested on: Malme-3M
OVCAR-4 = tested on: OVCAR-4
MDA-MB-231 = tested on: MDA-MB-231
U-251 = tested on: U-251
SNB-75 = tested on: SNB-75
Hs-578T = tested on: Hs-578T
RXF 393 = tested on: RXF 393

Measured: GI50

O=C(O)c1cc(-c2ccc3c(O)c(O)ccc3c2)ccc1O
inactive: IGROV-1 40.5 µM | OVCAR-8 23.1 µM | CCRF-CEM 12.3 µM | 786-0 31.7 µM | MDA-MB-435 21.7 µM | UO-31 > 75 µM | HCC 2998 > 75 µM | SF-539 > 75 µM | SW-620 15 µM | NCI-H460 > 7.5 µM | LOX IMVI 14.1 µM | HL-60 16.8 µM | RPMI-8226 15.9 µM | Malme-3M > 75 µM | OVCAR-4 12.9 µM | MDA-MB-231 26.1 µM | U-251 15 µM | SNB-75 > 75 µM | Hs-578T > 75 µM | RXF 393 17.4 µM

CN(Cc1cc(Br)cc(Br)c1O)Cc1c(O)ccc2ccccc12
inactive: IGROV-1 20.2 µM | OVCAR-8 23.8 µM | CCRF-CEM 20.7 µM | 786-0 16.7 µM | MDA-MB-435 18 µM | UO-31 14.9 µM | HCC 2998 17.1 µM | SF-539 16.1 µM | SW-620 32 µM | NCI-H460 19.1 µM | LOX IMVI 19.8 µM | HL-60 18.3 µM | RPMI-8226 22.6 µM | Malme-3M 21.7 µM | OVCAR-4 16.5 µM | MDA-MB-231 16.7 µM | U-251 19.3 µM | SNB-75 19.1 µM | Hs-578T 33.1 µM | RXF 393 19.4 µM

c1cc(CSc2ncnc3[nH]cnc23)ccn1
inactive: IGROV-1 > 100 µM | OVCAR-8 94 µM | CCRF-CEM 66.8 µM | 786-0 39 µM | MDA-MB-435 53.2 µM | UO-31 57.8 µM | HCC 2998 92.5 µM | SF-539 24.5 µM | SW-620 > 100 µM | NCI-H460 > 100 µM | LOX IMVI 28.2 µM | HL-60 67.9 µM | RPMI-8226 58.1 µM | Malme-3M > 100 µM | OVCAR-4 > 100 µM | MDA-MB-231 > 100 µM | U-251 > 100 µM | SNB-75 > 100 µM | Hs-578T > 100 µM | RXF 393 > 100 µM

COC(=O)c1ccc(CCc2cc(O)c(Br)cc2O)cc1
inactive: IGROV-1 14.6 µM | OVCAR-8 16 µM | CCRF-CEM 1.98 µM | 786-0 14.4 µM | MDA-MB-435 8.49 µM | UO-31 6.47 µM | HCC 2998 17.7 µM | SF-539 8.3 µM | SW-620 15 µM | NCI-H460 16.8 µM | LOX IMVI 13.7 µM | HL-60 1.86 µM | RPMI-8226 3.35 µM | Malme-3M 15.7 µM | OVCAR-4 11.2 µM | MDA-MB-231 15.1 µM | U-251 12.6 µM | SNB-75 26.8 µM | Hs-578T 33.3 µM | RXF 393 16.6 µM

CC(=O)[C@]1(C)[C@H](C)O[C@](C)(CO)[C@H]1O[Si](C)(C)c1ccccc1
inactive: IGROV-1 17.1 µM | OVCAR-8 48 µM | CCRF-CEM 28.4 µM | 786-0 81.5 µM | MDA-MB-435 50.1 µM | UO-31 28.8 µM | HCC 2998 31.5 µM | SF-539 > 100 µM | SW-620 73.6 µM | NCI-H460 51.2 µM | LOX IMVI 20.4 µM | HL-60 18.4 µM | RPMI-8226 35.2 µM | Malme-3M 15.4 µM | OVCAR-4 30.4 µM | MDA-MB-231 45.5 µM | U-251 > 100 µM | SNB-75 > 100 µM | Hs-578T 45 µM | RXF 393 14.1 µM

COc1cc(Br)cc2cc(-c3cn4ccsc4n3)c(=O)oc12
inactive: IGROV-1 19.9 µM | OVCAR-8 45.8 µM | CCRF-CEM 35 µM | 786-0 42.8 µM | MDA-MB-435 21.6 µM | UO-31 23.8 µM | HCC 2998 7.24 µM | SF-539 36.2 µM | SW-620 36 µM | NCI-H460 32 µM | LOX IMVI 49.4 µM | HL-60 29 µM | RPMI-8226 33.2 µM | Malme-3M 91.2 µM | OVCAR-4 51.2 µM | MDA-MB-231 20.6 µM | U-251 30 µM | SNB-75 32.1 µM | Hs-578T 41.5 µM | RXF 393 24.8 µM

CN1C(c2ccccc2)CC(=NOCc2ccccc2)CC1c1ccccc1 (stereo not given)
inactive: IGROV-1 38.1 µM | OVCAR-8 21.5 µM | CCRF-CEM 11.6 µM | 786-0 38.9 µM | MDA-MB-435 16.9 µM | UO-31 43.6 µM | HCC 2998 > 71.9 µM | SF-539 36.9 µM | SW-620 28.1 µM | NCI-H460 19.1 µM | LOX IMVI 14.8 µM | HL-60 19 µM | RPMI-8226 37.2 µM | Malme-3M 50.9 µM | OVCAR-4 22.5 µM | MDA-MB-231 43.7 µM | U-251 34.1 µM | SNB-75 31.4 µM | Hs-578T 36 µM | RXF 393 54.5 µM

O=C(Nc1ccc(Cl)cc1)c1cc(S(=O)(=O)N2CCNNC2=O)c(S)cc1Cl
inactive: IGROV-1 > 100 µM | OVCAR-8 > 100 µM | CCRF-CEM 97.7 µM | 786-0 > 100 µM | MDA-MB-435 > 100 µM | UO-31 > 100 µM | HCC 2998 > 100 µM | SF-539 > 100 µM | SW-620 > 100 µM | NCI-H460 > 100 µM | LOX IMVI > 100 µM | HL-60 > 100 µM | RPMI-8226 55.1 µM | Malme-3M > 100 µM | OVCAR-4 > 100 µM | MDA-MB-231 > 100 µM | U-251 > 100 µM | SNB-75 > 100 µM | Hs-578T > 100 µM | RXF 393 17.4 µM

Nc1nc(Cl)c(N)c(NCC2(CO)CC(OCc3ccccc3)C2)n1 (stereo not given)
inactive: IGROV-1 > 100 µM | OVCAR-8 > 100 µM | CCRF-CEM > 100 µM | 786-0 > 100 µM | MDA-MB-435 > 100 µM | UO-31 > 100 µM | HCC 2998 82 µM | SF-539 > 100 µM | SW-620 > 100 µM | NCI-H460 > 100 µM | LOX IMVI 9.35 µM | HL-60 > 100 µM | RPMI-8226 > 100 µM | Malme-3M > 100 µM | OVCAR-4 > 100 µM | MDA-MB-231 > 100 µM | U-251 > 100 µM | SNB-75 70 µM | Hs-578T > 100 µM | RXF 393 > 100 µM

O=c1[nH]nc(Cc2ccccc2)n1C1CC1
inactive: IGROV-1 > 100 µM | OVCAR-8 > 100 µM | CCRF-CEM > 100 µM | 786-0 > 100 µM | MDA-MB-435 > 100 µM | UO-31 61.7 µM | HCC 2998 > 100 µM | SF-539 > 100 µM | SW-620 > 100 µM | NCI-H460 > 100 µM | LOX IMVI > 100 µM | HL-60 > 100 µM | RPMI-8226 > 100 µM | Malme-3M > 100 µM | OVCAR-4 > 100 µM | MDA-MB-231 > 100 µM | U-251 > 100 µM | SNB-75 > 100 µM | Hs-578T > 100 µM | RXF 393 > 100 µM

Cn1c2ccccc2c(=NNc2ccccc2C(=O)O)c2ccccc21
inactive: IGROV-1 24.2 µM | OVCAR-8 17.5 µM | CCRF-CEM 13.2 µM | 786-0 27.5 µM | MDA-MB-435 20 µM | UO-31 18.4 µM | HCC 2998 19.7 µM | SF-539 13.1 µM | SW-620 24.4 µM | NCI-H460 13.2 µM | LOX IMVI 11.8 µM | HL-60 17 µM | RPMI-8226 9.82 µM | Malme-3M 20.4 µM | OVCAR-4 13.7 µM | MDA-MB-231 16.9 µM | U-251 7.03 µM | SNB-75 21.1 µM | Hs-578T 21.9 µM | RXF 393 12.7 µM

CCCC[C@@H]1CCN2C[C@@H](O)[C@@H](O)[C@@H]2[C@H]1O
inactive: IGROV-1 > 100 µM | OVCAR-8 > 100 µM | CCRF-CEM > 100 µM | 786-0 > 100 µM | MDA-MB-435 > 100 µM | UO-31 > 100 µM | HCC 2998 > 100 µM | SF-539 > 100 µM | SW-620 > 100 µM | NCI-H460 > 100 µM | LOX IMVI > 100 µM | HL-60 > 100 µM | RPMI-8226 > 100 µM | Malme-3M > 100 µM | OVCAR-4 > 100 µM | MDA-MB-231 > 100 µM | U-251 > 100 µM | SNB-75 89.9 µM | Hs-578T > 100 µM | RXF 393 > 100 µM

CCn1c2c(c3c(C(=O)OC)c(O)ccc31)C(=O)c1ccccc1C2=O
inactive: IGROV-1 3.61 µM | OVCAR-8 11.6 µM | CCRF-CEM 15 µM | 786-0 12.2 µM | MDA-MB-435 12.9 µM | UO-31 4.57 µM | HCC 2998 19.4 µM | SF-539 13.2 µM | SW-620 15 µM | NCI-H460 7.19 µM | LOX IMVI 13.2 µM | HL-60 22.1 µM | RPMI-8226 7.6 µM | Malme-3M 15.8 µM | OVCAR-4 10.2 µM | MDA-MB-231 15.4 µM | U-251 14.7 µM | SNB-75 4.36 µM | Hs-578T 10.1 µM | RXF 393 16.1 µM

CCOC(=O)C12OC(CCC1=O)C(C(=O)OC)=C2C(=O)OC (stereo not given)
inactive: IGROV-1 > 10 µM | OVCAR-8 > 10 µM | CCRF-CEM > 10 µM | 786-0 > 10 µM | MDA-MB-435 > 10 µM | UO-31 > 10 µM | HCC 2998 > 10 µM | SF-539 > 10 µM | SW-620 > 10 µM | NCI-H460 > 10 µM | LOX IMVI > 10 µM | HL-60 > 10 µM | RPMI-8226 > 10 µM | Malme-3M > 10 µM | OVCAR-4 > 10 µM | MDA-MB-231 > 10 µM | U-251 > 10 µM | SNB-75 2.26 µM | Hs-578T > 10 µM | RXF 393 > 10 µM
